Where “and” joins values, the source holds several entries; their conditions need not be identical. Equal values may be shown once.
Key:
SphK1 R24A = target: T1, SphK1 R24A (Homo sapiens, UniProt Q9NYA1, R24A); experiment: filter binding assay of [3H] acetyl-CoA to SphK1
T1 construct: His (N); made in house
Source text: (§1) Single point mutations in SphK1 (R56A, R57A, R24A, R185A, D178A, and F192A) and COX2 (S565A, N181A, T564A, and S567A) were generated using the In-Fusion Cloning Kits (Clontech) and ORF cDNA expression plasmids of human SphK1 and COX2 gene (Sino Biological Inc, HG15679-NH and HG12036-NH), according to the manufacturer’s instructions. The forward and reverse primers described in Supplementary Table 4. The SphK1 WT, SphK1 mutants, COX2 WT, and COX2 mutant plasmids were transformed in the One shot TOP 10 competent cell (Invitrogen). The bacteria were grown in Luria-Bertani (LB, Invitrogen) plates supplemented with 50 μg ml^−1 kanamycin (Sigma-Aldrich) at 37 °C. The bacterial cell pellets were resuspended in lysis buffer containing 20 mM sodium phosphate (GE Healthcare), 500 mM NaCl (GE Healthcare), 20 mM imidazole (pH 7.4) (GE Healthcare), 0.2 mg ml^−1 lysozyme (Sigma-Aldrich), 20 μg ml^−1 DNase I (Roche), 1 mM MgCl2 (Sigma-Aldrich), and 1 mM PMSF (Sigma-Aldrich) before being lysed by sonication and clarified by centrifugation at 15,493×g for 10 min. Proteins were purified from the soluble fraction using His-Spin Trap columns (GE Healthcare) and the binding and acetylation assays were performed.
(§2) Briefly, SphK1 WT and mutant enzymes (1 mU) were resuspended in 100 μl reaction buffer (20 mM HEPES; pH 7.4, 50 mM NaCl, 10 mM MgCl2, 1 mM EGTA, 0.02% Triton-X100, and 100 μM sphingosine, all from Sigma-Aldrich). […] Briefly, COX2 WT and mutant enzymes (1 mU) were resuspended in 100 μl reaction buffer (20 mM HEPES; pH 7.4, 50 mM NaCl, 10 mM MgCl2, 1 mM EGTA, and 0.02% Triton-X100, all from Sigma-Aldrich). Reactions were initiated by adding [^14C] N-AS (1–200 μM (0.1–20 μCi), ARC UK Ltd, ARC-1024) and incubated at 37 °C for 1 h. The reactions were terminated by adding 100 μl of ice-cold reaction buffer containing 5 mM cold N-AS and immediately filtered through P30 filtermat (Perkin-Elmer), followed by five washes.
(§3) The binding velocity was plotted and the Kcat and KM values were calculated from the Michaelis-Menten analysis using the Sigma-plot program (ver 10.0, Systat software Inc.).

SphK1 R56A = target: T2, SphK1 R56A (Homo sapiens, UniProt Q9NYA1, R56A); experiment: filter binding assay of [3H] acetyl-CoA to SphK1
T2 construct: His (N); made in house
T2 sequence (Q9NYA1 whole entry R56A): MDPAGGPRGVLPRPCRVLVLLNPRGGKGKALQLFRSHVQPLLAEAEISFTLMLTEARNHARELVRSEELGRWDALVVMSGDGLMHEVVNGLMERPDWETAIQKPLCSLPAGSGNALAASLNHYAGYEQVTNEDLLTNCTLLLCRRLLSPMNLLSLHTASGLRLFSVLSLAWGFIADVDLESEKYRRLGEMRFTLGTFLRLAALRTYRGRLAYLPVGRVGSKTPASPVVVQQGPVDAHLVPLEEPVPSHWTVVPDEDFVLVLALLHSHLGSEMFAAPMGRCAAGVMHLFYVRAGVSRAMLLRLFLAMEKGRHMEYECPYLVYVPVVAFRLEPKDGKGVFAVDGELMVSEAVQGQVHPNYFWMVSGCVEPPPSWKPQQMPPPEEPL
Source text: as §1, §2, §3

SphK1 = target: T3, SphK1 (Homo sapiens, UniProt Q9NYA1); experiment: S1P formation by SphK1 (UPLC, Supplementary Fig 1e); assay type: biochemical; conditions: acetyl-CoA 0-50 mM
T3 construct: purchased Cayman 10348
T3 sequence (Q9NYA1 whole entry): as the sequence (Q9NYA1 whole entry R56A) above, with A56R counted along it
Method: We confirmed S1P formation through SphK1 enzymatic activity measurements as previously described[11] using a UPLC (Ultra performance liquid chromatography) system (Waters). […] After pre-incubation, 1 mM ATP (Amresco, 0220) was added the mixture, and it was incubated at 37 °C for 1 h. The […] reactions were stopped by adding 53 μl of ethanol, and centrifuged at 15,493×g for 5 min. Thirty microliter of the supernatant was then transferred to a sampling glass vial and 5 μl was applied onto a UPLC system for analysis. S1P formation was followed as phosphorylation of (7-nitro-2-1,3-benzoxadiazol-4-yl)-d-erythro (NBD)-sphingosine (Avanti Polar Lipids) to NBD-S1P. Quantification was achieved by comparison with NBD-S1P (Avanti Polar Lipids) standards.

APP/PS1 mice = experiment: Iba1+ microglia and GFAP+ astrocyte quantification in cortex (Fig 6h,i); assay type: in vivo, mouse
Method: Thioflavin S (Sigma-Aldrich) staining was carried out according to previously described procedures. We used 6E10 (mouse, 1:100, Signet, SIG39300), anti-20G10 (mouse, 1:1000, provided by D. R. Howlett, GlaxoSmithKline, Harlow, Essex, UK) for Aβ42, anti-G30 (rabbit, 1:1000, provided by D. R. Howlett) for Aβ40, SMA (mouse, 1:400, Sigma-Aldrich, A2547), AT8 (mouse, 1:500, Thermo Fisher Scientific, MN1020), Caspase-3 (mouse, 1:200, Novus Biologicals, NB100-56708), ac-S565 (rabbit, 1:100), COX2 (mouse, 1:250, Thermo Fisher Scientific, 35-8200), Iba1 (rabbit, 1:500, Wako, 019-19941 and goat, Abcam, ab5076), NeuN (mouse, 1:500, Millipore, MAB177), GFAP (rabbit, 1:500, Dako, N1506 and chicken, 1:500, Abcam, ab4674), and Lamp1 (mouse, 1:200, Abcam, ab24170). The sections were analyzed with a laser-scanning confocal microscope (FV3000; Olympus) or with a BX51 microscope (Olympus). MetaMorph software (Molecular Devices) was used to quantification. Three-dimensional reconstruction of microglia was recorded and analyzed using IMARIS software (Bitplane)[11]. For the analysis of age-dependent microglial COX2^+ CX3CR1^+ cells in WT and APP/PS1 mice, COX2 (rabbit, 1:100, Abcam, ab15191) and CX3CR1 (mouse, 1:100, BioLegend, 149008) antibody were used and the images were acquired on Alexa 488 and APC Channel with performed using Operetta CLS and Analysis Software 4.5 (Perkin-Elmer).
Transgenic mouse lines over-expressing the hAPP695swe (APP) and presenilin-1M146V (PS1) mutations were originated from GlaxoSmithKline (Harlow, UK)[32] and maintained as described previously. We purchased 5×FAD mice from Jackson Labs (Stock number. 34840-JAX). Because APP/PS1 and 5xFAD mice show sex differences in disease progression, we used only male mice. To examine possible therapeutic effect of N-AS and aspirin in APP/PS1 mice, the N-AS (30 mg kg^−1, Sigma-Aldrich, 01912) was injected daily s.c. for 8 weeks to 7-months-old APP/PS1 mice until the age of 9 months, and aspirin (2 mg kg^−1, Sigma-Aldrich, A5376)[33] was administrated orally to 7-months-old APP/PS1 mice for 8 weeks. […]

[1] = read-out: KM of acetyl-CoA binding to SphK1
[2] = APP/PS1 + N-AS, individual animals

T1 sequence (Q9NYA1 whole entry R24A): as the sequence (Q9NYA1 whole entry R56A) above, with R24A, A56R counted along it

Compound	Kcat of acetyl-CoA binding to SphK1 (SphK1 R24A) [s⁻¹]	Km (SphK1 R24A; [1]) [µM]	Kcat of acetyl-CoA binding to SphK1 (SphK1 R56A) [s⁻¹]	Km (SphK1 R56A; [1]) [µM]	S1P formation by SphK1, in words (SphK1)	GFAP+ astrocyte quantification (Figure 6i) (APP/PS1 mice; [2])	Iba1+ microglia quantification (Figure 6h) (APP/PS1 mice; [2])	inflammatory response (Iba1+ microglia, GFAP+ astrocyte) (APP/PS1 mice; N-AS vs vehicle APP/PS1)
CC(=O)SCCNC(=O)CCNC(=O)[C@H](O)C(C)(C)COP(=O)(O)OP(=O)(O)OC[C@H]1O[C@@H](n2cnc3c(N)ncnc32)[C@H](O)[C@@H]1OP(=O)(O)O [Acetyl-CoA, acetyl-CoA]	0.000273	14.4	0.000203	40.4	inhibited S1P formation in a concentration dependent fashion			
CCCCCCCCCCCCC/C=C/[C@@H](O)[C@H](CO)NC(C)=O [N-AS, N-((2S,3R,E)-1,3-Dihydroxyoctadec-4-en-2-yl)acetamide]						2.9 and 1.684 and 2.972 and 1.386 and 1.661 and 0.8495 and 1.293 and 1.379	0.2355 and 0.191 and 0.3245 and 0.8739 and 0.8648 and 0.875 and 0.5574 and 0.579 and 0.4301	improved

Source: publication PMC7217877, “N-AS-triggered SPMs are direct regulators of microglia in a model of Alzheimer’s disease” (Nature Communications, 2020)
